Assay results as given in article PMC7714403 (JCI Insight, 2020).
Read-outs that look alike come from different tables or passages of the source.

Columns and labels:
[1] = target: FRAP (Homo sapiens, UniProt P42345); assay: KiNativ, OCI cells live cell; type: cell-based; details: 2 h, labeling site ATP, peptide […]
[2] = target: CaMK4 (Homo sapiens, UniProt Q16566); assay: KiNativ, OCI cells live cell; type: cell-based; details: 2 h, labeling site Lys2, peptide […]
[3] = target: CASK (Homo sapiens, UniProt O14936); assay: KiNativ, OCI cells live cell; type: cell-based; details: 2 h, labeling site Lys1, peptide […]
CASK, sequence (O14936 whole entry): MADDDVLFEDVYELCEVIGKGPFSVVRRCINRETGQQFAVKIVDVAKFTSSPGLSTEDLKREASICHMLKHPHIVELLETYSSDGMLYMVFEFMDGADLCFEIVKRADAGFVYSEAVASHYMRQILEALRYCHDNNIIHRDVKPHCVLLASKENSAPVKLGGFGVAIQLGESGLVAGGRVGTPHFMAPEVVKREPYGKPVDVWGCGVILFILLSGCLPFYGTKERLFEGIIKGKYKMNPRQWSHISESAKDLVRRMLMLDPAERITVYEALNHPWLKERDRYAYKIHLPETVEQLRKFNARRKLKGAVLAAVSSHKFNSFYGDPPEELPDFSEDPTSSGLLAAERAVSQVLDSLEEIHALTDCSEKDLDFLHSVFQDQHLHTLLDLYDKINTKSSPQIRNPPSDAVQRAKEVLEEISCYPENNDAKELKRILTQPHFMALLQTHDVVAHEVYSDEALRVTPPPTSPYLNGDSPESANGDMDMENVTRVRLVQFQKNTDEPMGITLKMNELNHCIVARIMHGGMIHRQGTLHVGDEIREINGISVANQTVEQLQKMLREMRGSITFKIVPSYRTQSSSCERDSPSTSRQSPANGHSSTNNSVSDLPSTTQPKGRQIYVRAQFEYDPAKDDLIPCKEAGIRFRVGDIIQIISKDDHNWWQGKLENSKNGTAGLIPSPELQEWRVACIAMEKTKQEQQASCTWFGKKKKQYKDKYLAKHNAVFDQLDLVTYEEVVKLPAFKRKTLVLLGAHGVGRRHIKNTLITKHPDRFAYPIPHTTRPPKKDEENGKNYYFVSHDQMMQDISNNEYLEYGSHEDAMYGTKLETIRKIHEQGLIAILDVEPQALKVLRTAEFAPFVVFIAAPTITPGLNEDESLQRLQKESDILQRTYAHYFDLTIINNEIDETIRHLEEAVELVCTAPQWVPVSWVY

[4] = target: CaMK2g (Homo sapiens, UniProt Q13555); assay: KiNativ, OCI cells live cell; type: cell-based; details: 2 h, labeling site Lys1, peptide […]
[5] = test system: MARK3, MARK4; assay: KiNativ, OCI cells live cell; type: cell-based, human; details: labeling site Lys1, peptide EVAIKIIDK
[6] = target: T1, PCTAIRE1 (Homo sapiens, UniProt Q00536); assay: KiNativ, OCI cells live cell; type: cell-based; details: 2 h, labeling site Lys1, peptide […]
T1 sequence (Q00536 whole entry): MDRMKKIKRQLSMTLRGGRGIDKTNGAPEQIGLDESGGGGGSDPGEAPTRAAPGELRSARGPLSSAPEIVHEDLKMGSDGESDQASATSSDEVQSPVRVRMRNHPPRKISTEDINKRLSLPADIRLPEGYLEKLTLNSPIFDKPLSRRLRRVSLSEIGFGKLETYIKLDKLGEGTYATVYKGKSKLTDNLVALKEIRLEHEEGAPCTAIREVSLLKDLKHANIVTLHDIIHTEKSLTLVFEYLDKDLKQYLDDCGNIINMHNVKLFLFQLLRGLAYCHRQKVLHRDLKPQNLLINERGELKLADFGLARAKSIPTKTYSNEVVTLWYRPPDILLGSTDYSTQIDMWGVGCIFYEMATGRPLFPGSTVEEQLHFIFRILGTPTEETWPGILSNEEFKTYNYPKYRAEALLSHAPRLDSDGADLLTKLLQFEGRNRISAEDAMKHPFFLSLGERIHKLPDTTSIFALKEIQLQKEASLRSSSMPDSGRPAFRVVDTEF

[7] = target: T2, PLK4 (Homo sapiens, UniProt O00444); assay: KdELECT binding assay
T2 construct: purchased Eurofins DiscoverX

[8] = target: FGR (Homo sapiens, UniProt P09769); assay: KiNativ, OCI cells live cell; type: cell-based; details: 2 h, labeling site Activation Loop, peptide […]
[9] = target: MLK3 (Homo sapiens, UniProt Q16584); assay: KiNativ, OCI cells live cell; type: cell-based; details: labeling site Lys2, peptide DLKSNNILLLQPIESDDMEHK
[10] = test system: MAP3K15, MAP3K5, MAP3K6; assay: KiNativ, OCI cells live cell; type: cell-based, human; details: labeling site Lys1, peptide IAIKEIPER
[11] = target: T3, RSK3 domain1 (Homo sapiens, UniProt Q15349); assay: KiNativ, OCI cells live cell; type: cell-based; details: 2 h, labeling site Lys2, peptide […]
T3 construct: RSK3 domain1
T3 sequence (Q15349 whole entry, the tested form may be a part): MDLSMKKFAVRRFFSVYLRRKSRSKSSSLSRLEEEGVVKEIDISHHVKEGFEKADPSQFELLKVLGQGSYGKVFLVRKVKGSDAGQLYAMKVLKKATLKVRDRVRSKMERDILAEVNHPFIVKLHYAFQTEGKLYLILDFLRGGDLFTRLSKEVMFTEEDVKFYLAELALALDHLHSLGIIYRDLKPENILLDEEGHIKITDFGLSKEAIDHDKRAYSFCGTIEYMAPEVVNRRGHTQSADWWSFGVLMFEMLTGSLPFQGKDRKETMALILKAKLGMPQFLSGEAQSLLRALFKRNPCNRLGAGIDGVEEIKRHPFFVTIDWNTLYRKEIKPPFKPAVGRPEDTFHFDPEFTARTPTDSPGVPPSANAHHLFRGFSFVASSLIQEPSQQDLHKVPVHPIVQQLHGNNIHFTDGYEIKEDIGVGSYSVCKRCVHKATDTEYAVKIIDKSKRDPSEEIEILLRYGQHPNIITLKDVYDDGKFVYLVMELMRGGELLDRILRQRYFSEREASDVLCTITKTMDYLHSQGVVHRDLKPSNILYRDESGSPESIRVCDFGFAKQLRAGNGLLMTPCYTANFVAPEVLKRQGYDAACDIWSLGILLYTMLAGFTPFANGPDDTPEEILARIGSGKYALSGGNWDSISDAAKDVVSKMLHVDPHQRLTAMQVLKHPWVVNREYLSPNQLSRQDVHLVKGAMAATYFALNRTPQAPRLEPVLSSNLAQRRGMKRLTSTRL

[12] = target: NLK (Homo sapiens, UniProt Q9UBE8); assay: KiNativ, OCI cells live cell; type: cell-based; details: 2 h, labeling site Lys2, peptide […]
[13] = test system: MSK1 domain1, MSK2 domain1; assay: KiNativ, OCI cells live cell; type: cell-based, human; details: labeling site ATP Loop, peptide VLGTGAYGKVFLVR
[14] = target: T4, RIPK3 (Homo sapiens, UniProt Q9Y572); assay: KiNativ, OCI cells live cell; type: cell-based; details: 2 h, labeling site Lys2, peptide […]
T4 sequence (Q9Y572 whole entry): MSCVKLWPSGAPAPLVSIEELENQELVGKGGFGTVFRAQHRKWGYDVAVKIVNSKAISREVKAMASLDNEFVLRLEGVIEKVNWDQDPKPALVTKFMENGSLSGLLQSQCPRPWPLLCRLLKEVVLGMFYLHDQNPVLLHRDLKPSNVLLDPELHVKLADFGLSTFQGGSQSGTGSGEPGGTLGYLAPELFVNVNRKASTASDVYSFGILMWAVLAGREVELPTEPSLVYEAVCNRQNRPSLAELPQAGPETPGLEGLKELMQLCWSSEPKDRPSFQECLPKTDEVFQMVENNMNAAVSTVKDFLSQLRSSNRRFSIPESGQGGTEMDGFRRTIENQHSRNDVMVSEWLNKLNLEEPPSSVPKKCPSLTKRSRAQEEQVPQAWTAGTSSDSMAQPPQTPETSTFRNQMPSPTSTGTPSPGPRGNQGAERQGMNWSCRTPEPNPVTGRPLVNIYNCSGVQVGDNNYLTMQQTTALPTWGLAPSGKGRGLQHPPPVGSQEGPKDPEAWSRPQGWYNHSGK

[15] = target: CDK4 (Homo sapiens, UniProt P11802); assay: KiNativ, MOLM13 live cells; type: cell-based; details: MOLM-13; 100 nM, 2 hours; Lys2; read-out: Inhibition vs DMSO
Protocol: (§1) Samples were analyzed by KiNativ in situ kinase profiling by ActivX Biosciences.

[16] = target: PFTAIRE1 (Homo sapiens, UniProt O94921); assay: KiNativ, MOLM13 live cells; type: cell-based; details: 100 nM, 2 hours; Lys1
Protocol: as §1

[17] = target: MAPKAPK3 (Homo sapiens, UniProt Q16644); assay: KiNativ, MOLM13 live cells; type: cell-based; details: MOLM-13; 100 nM, 2 hours; ATP Loop; read-out: Inhibition vs DMSO
MAPKAPK3, sequence (Q16644 whole entry): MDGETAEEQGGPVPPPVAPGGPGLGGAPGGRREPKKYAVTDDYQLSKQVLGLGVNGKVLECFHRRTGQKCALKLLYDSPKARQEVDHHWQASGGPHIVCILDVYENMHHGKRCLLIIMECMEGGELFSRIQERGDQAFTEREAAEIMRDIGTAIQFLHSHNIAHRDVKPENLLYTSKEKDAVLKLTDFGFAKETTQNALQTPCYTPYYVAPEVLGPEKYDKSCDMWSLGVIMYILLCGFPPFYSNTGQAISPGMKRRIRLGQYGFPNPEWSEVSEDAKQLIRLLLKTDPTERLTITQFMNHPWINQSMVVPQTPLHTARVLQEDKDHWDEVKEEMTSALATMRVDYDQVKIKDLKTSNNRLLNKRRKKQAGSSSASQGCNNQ
Protocol: as §1

[18] = target: SYK (Homo sapiens, UniProt P43405); assay: KiNativ, MOLM13 live cells; type: cell-based; details: 100 nM, 2 hours
Protocol: as §1

[19] = target: CDC2 (Homo sapiens, UniProt P06493); assay: KiNativ, MOLM13 live cells; type: cell-based; details: MOLM-13, 2 h, 100 nM
CDC2, sequence (P06493 whole entry): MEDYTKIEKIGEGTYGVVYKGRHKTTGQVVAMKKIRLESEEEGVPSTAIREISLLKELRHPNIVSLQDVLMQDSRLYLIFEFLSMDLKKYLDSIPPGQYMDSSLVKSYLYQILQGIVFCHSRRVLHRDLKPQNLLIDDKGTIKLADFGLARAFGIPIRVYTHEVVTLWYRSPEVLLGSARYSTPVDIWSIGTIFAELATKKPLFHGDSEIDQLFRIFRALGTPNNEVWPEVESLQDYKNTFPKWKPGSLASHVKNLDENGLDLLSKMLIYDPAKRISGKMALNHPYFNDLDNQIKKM
Protocol: as §1

[20] = target: T1, PCTAIRE1; assay: KiNativ, MOLM13 live cells; type: cell-based; details: MOLM-13; 100 nM, 2 hours; Lys1; read-out: Inhibition vs DMSO
Protocol: as §1

[21] = target: NDR1 (Homo sapiens, UniProt Q15208); assay: KiNativ, MOLM13 live cells; type: cell-based; details: MOLM-13, 2 h, 100 nM
NDR1, sequence (Q15208 whole entry): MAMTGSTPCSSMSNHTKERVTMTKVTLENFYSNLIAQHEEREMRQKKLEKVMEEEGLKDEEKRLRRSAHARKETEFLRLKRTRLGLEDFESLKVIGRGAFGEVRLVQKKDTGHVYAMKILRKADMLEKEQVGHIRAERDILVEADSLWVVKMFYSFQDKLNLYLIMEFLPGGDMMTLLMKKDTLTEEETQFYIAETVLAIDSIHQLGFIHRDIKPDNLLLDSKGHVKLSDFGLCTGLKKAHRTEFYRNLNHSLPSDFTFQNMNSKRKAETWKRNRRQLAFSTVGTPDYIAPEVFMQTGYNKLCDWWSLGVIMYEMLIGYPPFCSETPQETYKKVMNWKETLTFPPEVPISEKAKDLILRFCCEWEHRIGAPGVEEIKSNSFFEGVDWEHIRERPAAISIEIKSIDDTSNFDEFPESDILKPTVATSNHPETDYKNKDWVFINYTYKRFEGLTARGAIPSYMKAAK
Protocol: as §1

[22] = target: CaMK2d (Homo sapiens, UniProt Q13557); assay: KiNativ, MOLM13 live cells; type: cell-based; details: MOLM-13; 100 nM, 2 hours; Lys1; read-out: Inhibition vs DMSO
Protocol: as §1

[23] = target: MAP2K7 (Homo sapiens, UniProt O14733); assay: KiNativ, MOLM13 live cells; type: cell-based; details: 100 nM, 2 hours; Lys2
Protocol: as §1

[24] = target: IKKa (Homo sapiens, UniProt O15111); assay: KiNativ, MOLM13 live cells; type: cell-based; details: MOLM-13; 100 nM, 2 hours; Lys2; read-out: Inhibition vs DMSO
Protocol: as §1

[25] = target: Erk1 (Homo sapiens, UniProt P27361); assay: KiNativ, MOLM13 live cells; type: cell-based; details: MOLM-13; 100 nM, 2 hours; Lys2; read-out: Inhibition vs DMSO
Erk1, sequence (P27361 whole entry): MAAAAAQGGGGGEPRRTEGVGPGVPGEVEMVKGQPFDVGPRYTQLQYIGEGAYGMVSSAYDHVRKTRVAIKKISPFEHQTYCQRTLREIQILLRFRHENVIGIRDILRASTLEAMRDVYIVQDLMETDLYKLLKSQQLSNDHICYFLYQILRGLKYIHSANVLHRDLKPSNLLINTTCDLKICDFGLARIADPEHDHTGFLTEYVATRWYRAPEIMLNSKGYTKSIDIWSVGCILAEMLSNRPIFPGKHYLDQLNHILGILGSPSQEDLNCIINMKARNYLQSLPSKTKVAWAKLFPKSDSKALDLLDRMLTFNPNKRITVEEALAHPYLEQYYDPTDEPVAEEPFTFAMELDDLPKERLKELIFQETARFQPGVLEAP
Protocol: as §1

[26] = target: T4, RIPK3; assay: KiNativ, MOLM13 live cells; type: cell-based; details: MOLM-13; 100 nM, 2 hours; Lys2; read-out: Inhibition vs DMSO
Protocol: as §1

[27] = target: RSKL1 (Homo sapiens, UniProt Q96S38); assay: KiNativ, MOLM13 live cells; type: cell-based; details: MOLM-13; 100 nM, 2 hours; ATP; read-out: Inhibition vs DMSO
Protocol: as §1

[28] = target: ATR (Homo sapiens, UniProt Q13535); assay: KiNativ, MOLM13 live cells; type: cell-based; details: MOLM-13; 100 nM, 2 hours; ATP; read-out: Inhibition vs DMSO
Protocol: as §1

[29] = target: PFTAIRE2 (Homo sapiens, UniProt Q96Q40); assay: KiNativ, MOLM13 live cells; type: cell-based; details: MOLM-13; 100 nM, 2 hours; Lys2; read-out: Inhibition vs DMSO
Protocol: as §1

[30] = target: PLK1 (Homo sapiens, UniProt P53350); assay: KiNativ, OCI cells live cell; type: cell-based; details: 2 h
PLK1, sequence (P53350 whole entry): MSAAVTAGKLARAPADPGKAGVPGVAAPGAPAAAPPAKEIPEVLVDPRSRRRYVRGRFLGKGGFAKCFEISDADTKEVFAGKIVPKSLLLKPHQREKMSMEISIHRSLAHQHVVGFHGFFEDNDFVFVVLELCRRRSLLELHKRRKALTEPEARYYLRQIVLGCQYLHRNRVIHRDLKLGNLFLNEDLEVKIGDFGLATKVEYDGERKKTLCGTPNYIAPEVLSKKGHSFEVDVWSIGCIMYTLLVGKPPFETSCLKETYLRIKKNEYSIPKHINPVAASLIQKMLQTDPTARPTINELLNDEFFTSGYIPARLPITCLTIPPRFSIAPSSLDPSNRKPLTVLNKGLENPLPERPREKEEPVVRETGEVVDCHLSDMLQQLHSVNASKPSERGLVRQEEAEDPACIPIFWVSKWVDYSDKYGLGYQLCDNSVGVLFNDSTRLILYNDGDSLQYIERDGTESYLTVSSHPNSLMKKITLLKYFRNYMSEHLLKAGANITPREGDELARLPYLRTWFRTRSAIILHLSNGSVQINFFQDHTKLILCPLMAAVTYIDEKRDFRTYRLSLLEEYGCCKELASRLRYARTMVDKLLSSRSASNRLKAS

[31] = target: T5, ALK (Homo sapiens, UniProt Q9UM73); assay: KdELECT binding assay
T5 construct: purchased Eurofins DiscoverX

[32] = target: HCK (Homo sapiens, UniProt P08631); assay: KiNativ, OCI cells live cell; type: cell-based; details: 2 h, labeling site Activation Loop, peptide […]
[33] = Lys1, read-out: Inhibition vs DMSO
[34] = Lys2, read-out: Inhibition vs DMSO

CN1CCN(Cc2ccc(Nc3ncc(Cl)c(Nc4ccccc4S(=O)(=O)N(C)C)n3)cc2)CC1 [TP-0903] was tested, and the inhibition at 0.1 µM [1] was 7.9%, the inhibition at 0.1 µM [2] was -2.6% and the inhibition at 0.1 µM [3] was 31.2%. It also gave an inhibition at 0.1 µM [4] of 31.6%, an Inhibition [5] of 43.9% and an inhibition at 0.1 µM [6] of 94.6%. It also gave a Kd [7] of under 5 nM, an inhibition at 0.1 µM [8] of 9.5% and an Inhibition [9] of 31.9%. The Inhibition [10] was -14.4%, the inhibition at 0.1 µM [11] was 53.5% and the inhibition at 0.1 µM [12] was -23%. For the same compound, the Inhibition [13] was 11.0%, the inhibition at 0.1 µM [14] was 2.8% and the inhibition at 0.1 µM [15] was 9.8%. For the same compound, the “Inhibition vs DMSO” value [16] was 29.5%, the inhibition at 0.1 µM [17] was -45.7% and the “Inhibition vs DMSO” value ([18]; Activation Loop, AQTHGKWPVK) was 27.9%. The “Inhibition vs DMSO” value ([18]; Activation Loop, ISDFGLSKALR) was 17.6%, the “Inhibition vs DMSO” value ([18]; Lys1) was 8.1% and the inhibition at 0.1 µM [19, 33] was 2.5%. For the same compound, the inhibition at 0.1 µM [19, 34] was 0.8%, the inhibition at 0.1 µM ([19]; Protein Kinase Domain, read-out: Inhibition vs DMSO) was -40.6% and the inhibition at 0.1 µM [20] was 69.6%. For the same compound, the inhibition at 0.1 µM [21, 33] was 3.7%, the inhibition at 0.1 µM [21, 34] was -11.4% and the inhibition at 0.1 µM [22] was 7.5%. For the same compound, the “Inhibition vs DMSO” value [23] was -0.0231%, the inhibition at 0.1 µM [24] was 2.9% and the inhibition at 0.1 µM [25] was -2.8%. It also gave an inhibition at 0.1 µM [26] of 6.4%, an inhibition at 0.1 µM [27] of -8.3% and an inhibition at 0.1 µM [28] of 7.6%. The inhibition at 0.1 µM [29] was 16.4%, the inhibition at 0.1 µM ([30]; labeling site Lys1, peptide CFEISDADTKEVFAGKIVPK) was -5% and the inhibition at 0.1 µM ([30]; labeling site Lys2, peptide DLKLGNLFLNEDLEVK) was -4.3%. The Kd [31] was under 5 nM and the inhibition at 0.1 µM [32] was -3.8%.
